The results in this text go back to patent publication US9296751B1, “Indolizino[3,2-c]quinoline derivatives, pharmaceutically acceptable salt thereof, preparation method thereof and pharmaceutical composition for treatment of cystic fibrosis containing the same as active ingredient” (INDUSTRY-ACADEMIC COOPERATION FOUNDATION, YONSEI UNIVERSITY, priority 2014, dated 2016).

In series [1] the target is T1, human cystic fibrosis conductance transmembrane regulator (CFTR) (Homo sapiens, UniProt P13569).
T1 construct: expressed in transfected cells; host or cells: FRT cells (Fischer rat thyroid epithelial cells)
T1 sequence (P13569 whole entry): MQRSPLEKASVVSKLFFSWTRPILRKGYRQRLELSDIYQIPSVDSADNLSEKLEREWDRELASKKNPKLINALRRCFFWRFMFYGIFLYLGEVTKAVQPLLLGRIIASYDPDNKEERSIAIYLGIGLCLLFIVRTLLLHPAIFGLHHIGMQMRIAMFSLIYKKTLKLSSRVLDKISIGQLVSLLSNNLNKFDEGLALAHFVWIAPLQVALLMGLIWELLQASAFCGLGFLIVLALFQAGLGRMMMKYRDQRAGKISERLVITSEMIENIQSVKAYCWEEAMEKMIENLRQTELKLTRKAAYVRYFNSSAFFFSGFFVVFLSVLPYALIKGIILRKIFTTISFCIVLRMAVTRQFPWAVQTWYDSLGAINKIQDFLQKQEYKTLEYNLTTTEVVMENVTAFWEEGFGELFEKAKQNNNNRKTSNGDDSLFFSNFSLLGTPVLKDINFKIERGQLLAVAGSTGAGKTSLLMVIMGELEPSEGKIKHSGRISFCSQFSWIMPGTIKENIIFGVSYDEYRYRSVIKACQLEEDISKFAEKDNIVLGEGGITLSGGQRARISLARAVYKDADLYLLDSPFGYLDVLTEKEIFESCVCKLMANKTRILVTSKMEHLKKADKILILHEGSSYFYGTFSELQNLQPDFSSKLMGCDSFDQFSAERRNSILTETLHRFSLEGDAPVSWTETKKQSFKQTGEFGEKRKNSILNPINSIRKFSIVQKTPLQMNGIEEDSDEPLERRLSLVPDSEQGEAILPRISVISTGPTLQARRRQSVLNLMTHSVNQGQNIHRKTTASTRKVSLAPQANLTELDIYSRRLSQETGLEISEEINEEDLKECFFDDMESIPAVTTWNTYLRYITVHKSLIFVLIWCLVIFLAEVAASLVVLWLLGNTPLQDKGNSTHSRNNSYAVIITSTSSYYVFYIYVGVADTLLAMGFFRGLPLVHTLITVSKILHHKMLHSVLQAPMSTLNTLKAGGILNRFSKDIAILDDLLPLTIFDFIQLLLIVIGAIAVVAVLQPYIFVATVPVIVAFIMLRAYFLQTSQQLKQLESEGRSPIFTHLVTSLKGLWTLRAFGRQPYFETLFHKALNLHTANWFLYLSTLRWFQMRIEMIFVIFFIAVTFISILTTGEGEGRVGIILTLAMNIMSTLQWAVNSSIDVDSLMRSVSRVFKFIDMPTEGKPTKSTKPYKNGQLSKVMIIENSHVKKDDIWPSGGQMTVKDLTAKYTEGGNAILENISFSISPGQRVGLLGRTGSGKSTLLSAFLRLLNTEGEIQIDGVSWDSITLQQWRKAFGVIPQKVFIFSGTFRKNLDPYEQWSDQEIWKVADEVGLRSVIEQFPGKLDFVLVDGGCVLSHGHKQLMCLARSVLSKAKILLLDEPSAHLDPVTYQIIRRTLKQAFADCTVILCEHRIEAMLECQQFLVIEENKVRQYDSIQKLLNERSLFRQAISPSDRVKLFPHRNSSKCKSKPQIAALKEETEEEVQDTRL
The series can be described thus: Effect upon CFTR chloride ion channel activity (YFP fluorescence quenching by iodide influx in FRT cells). It counts as cell-based. The conditions noted are these: for Emax at 30 µM: FRT, 10 min, final concentration of 30 μM, reaction for 10 minutes, ratio based on the CFTR activity maximized by forskolin; for CFTR activity ratio, result in words: 30 μM, comment on Table 2. The method, then: FRT cells expressing […] specific to human cystic fibrosis conductance transmembrane regulator (CFTR) and iodide ions are cultured in the Coon's modified F-12 culture medium for 48 hours on a 96-well plate. Each well of the plate containing the cultured cells is washed three times with 200 μl of PBS buffer, and then 100 μl of PBS buffer is added to each well. The indolizino[3,2-c]quinoline derivative according to each Example is introduced to each well to a final concentration of 30 μM, followed by reaction for 10 minutes. After the completion of the reaction, the 96-well is mounted to a FLUOstar Omega microplate reader (BMG LABTECH) and 100 μl of NaI solution is added to each well. Then, YFP fluorescence reduced by the iodide ions introduced to the cells through CFTR is recorded at an interval of 0.4 seconds for 24 seconds in total, thereby evaluating the effect of each compound upon CFTR activity.
The effect of each indolizino[3,2-c]quinoline derivative upon CFTR chloride ion channel activity is calculated as an activity ratio based on the CFTR activity maximized by a well-known CFTR agonist, forskolin.

One may read the Emax as the size of the effect at its maximum, as opposed to the concentration needed. As usually defined, the melting point is the temperature of the solid-liquid transition.

Molecules are shown by their SMILES.

Compound `COC(=O)c1c2c3ccccc3nc(-c3ccc[nH]3)c2n2ccccc12` [Example 33, Methyl 6-(1H-pyrrol-2-yl)indolizino[3,2-c]quinoline-12-carboxylate] had a melting point of 230.8 to 231.4 °C. In addition, the maximum response (Emax) at 30 µM in series [1] came out at 37%. Compound `COc1ccc(-c2nc3ccccc3c3c(Br)c4ccccn4c23)cc1` [Example 44, 12-Bromo-6-(4-methoxyphenyl)indolizino[3,2-c]quinoline] came in with a melting point of 221.6 to 221.9 °C. Turning to `Cc1cccn2c1cc1c3ccccc3nc(-c3cccc(F)c3)c12` [Example 17, 6-(3-Fluorophenyl)-11-methylindolizino[3,2-c]quinoline], the melting point was in the range of 176.1 to 176.5 °C. Moreover, the Emax at 30 µM in series [1] came out at 50%.

In turn, `COc1cc(OC)cc(-c2nc3ccccc3c3cc4c(C)cccn4c23)c1` [Example 21, 6-(3,5-Dimethoxyphenyl)-11-methylindolizino[3,2-c]quinoline] had a melting point of 185.8 to 186.4 °C. Also, in series [1], the maximal effect (Emax) at 30 µM was 66%. With `Brc1ccc2cc3c4ccccc4nc(-c4ccc(Br)s4)c3n2c1` [Example 28, 9-Bromo-6-(5-bromothiophen-2-yl)indolizino[3,2-c]quinoline], the melting point lay within 223.3 to 223.7 °C.

As for `CCOC(=O)c1c2c3ccccc3nc(-c3cccc(F)c3)c2n2ccccc12` [Example 34, Ethyl 6-(3-fluorophenyl)indolizino[3,2-c]quinoline-12-carboxylate], the melting point was in the range of 202.1 to 202.4 °C. On the same count and under the same terms, the value for `CCOC(=O)c1c2c3ccccc3nc(-c3ccc4ccccc4c3)c2n2ccccc12` [Example 39, Ethyl 6-(naphthalene-2-yl)indolizino[3,2-c]quinoline-12-carboxylate] was 210.3 to 210.7 °C; that for `Clc1ccc(-c2nc3ccccc3c3cc4ccccn4c23)cc1` [Example 3, 6-(4-Chlorophenyl)indolizino[3,2-c]quinoline] was 190.5 to 191 °C; that for `CCOC(=O)c1c2c3ccccc3nc(-c3ccc([N+](=O)[O-])cc3)c2n2ccccc12` [Example 36, Ethyl 6-(4-nitrophenyl)indolizino[3,2-c]quinoline-12-carboxylate] was 245.8 to 246.1 °C. Compound `COC(=O)c1c2c3ccccc3nc(-c3cccc4ccccc34)c2n2ccccc12` [Example 32, Methyl 6-(naphthalene-1-yl)indolizino[3,2-c]quinoline-12-carboxylate] registered a melting point of 245.8 to 246.2 °C. For `c1ccc2cc(-c3nc4ccccc4c4cc5ccccn5c34)ccc2c1` [Example 13, 6-(Naphthalen-2-yl)indolizino[3,2-c]quinoline], the melting point lay in the range of 205.6 to 206.2 °C. Further, in series [1], the “CFTR activity ratio, result in words” value is listed as “high activity ratio” and the maximal response (Emax) at 30 µM was 83%.

The compound `COc1cccc(-c2nc3ccccc3c3cc4c(C)cccn4c23)c1` [Example 19, 6-(3-Methoxyphenyl)-11-methylindolizino[3,2-c]quinoline] had a melting point of 165 to 166 °C. In the case of `COc1cc(OC)cc(-c2ccc3cc4c5ccccc5nc(-c5cccc6ccccc56)c4n3c2)c1` [Example 42, 9-(3,5-Dimethoxyphenyl)-6-(naphthalene-1-yl)indolizino[3,2-c]quinoline], the melting point was in the range of 177.5 to 177.8 °C. `COC(=O)c1c2c3ccccc3nc(-c3ccc(Br)cc3)c2n2ccccc12` [Example 30, Methyl 6-(4-bromophenyl)indolizino[3,2-c]quinoline-12-carboxylate] gave a melting point of 232.3 to 232.5 °C. Same read-out and setting: the value for `COc1ccc(-c2nc3ccccc3c3cc4ccc(Br)cn4c23)cc1OC` [Example 26, 9-Bromo-6-(3,4-dimethoxyphenyl)indolizino[3,2-c]quinoline] was 188.5 to 189 °C; that for `Cc1ccc(-c2nc3ccccc3c3cc4ccc(Br)cn4c23)cc1` [Example 25, 9-Bromo-6-(p-tolyl)indolizino[3,2-c]quinolone] was 230.8 to 231.2 °C. `O=[N+]([O-])c1ccc(-c2nc3ccccc3c3cc4ccccn4c23)cc1` [Example 5, 6-(4-Nitrophenyl)indolizino[3,2-c]quinoline] yielded a melting point of 246.3 to 246.5 °C. Also, in series [1], the “CFTR activity ratio, result in words” value was “high activity ratio” and the Emax at 30 µM turned out to be 93%.

In the case of `COc1ccc(-c2nc3ccccc3c3cc4ccc(-c5ccc([N+](=O)[O-])cc5)cn4c23)cc1` [Example 41, 6-(4-Methoxyphenyl)-9-(4-nitrophenyl)indolizino[3,2-c]quinoline], the melting point was in the range of 256 to 256.6 °C. Same read-out and setting: then `Clc1cccc(-c2nc3ccccc3c3cc4ccccn4c23)c1` [Example 4, 6-(3-Chlorophenyl)indolizino[3,2-c]quinoline], with 124.3 to 125.3 °C; and `Cc1cccn2c1cc1c3ccccc3nc(-c3ccc([N+](=O)[O-])cc3)c12` [Example 18, 11-Methyl-6-(4-nitrophenyl)indolizino[3,2-c]quinoline], with 259.7 to 260.4 °C.

`CCOC(=O)c1c2c3ccccc3nc(-c3ccc(OC)c(OC)c3)c2n2ccccc12` [Example 38, Ethyl 6-(3,4-dimethoxyphenyl)indolizino[3,2-c]quinoline-12-carboxylate] displayed a melting point of 195.5 to 195.8 °C. For the same compound, the Emax at 30 µM in series [1] amounted to 31%. In turn, `COc1cccc(-c2nc3ccccc3c3cc4ccccn4c23)c1` [Example 8, 6-(3-Methoxyphenyl)indolizino[3,2-c]quinoline] displayed a melting point of 174 to 174.4 °C. `COC(=O)c1c2c3ccccc3nc(-c3cc(OC)cc(OC)c3)c2n2ccccc12` [Example 31, Methyl 6-(3,5-dimethoxyphenyl)indolizino[3,2-c]quinoline-12-carboxylate] returned a melting point of 205.9 to 206.3 °C. The “CFTR activity ratio, result in words” value in series [1] is reported as “high activity ratio”. `c1ccc(-c2nc3ccccc3c3cc4ccccn4c23)cc1` [Example 6, 6-Phenylindolizino[3,2-c]quinoline] yielded a melting point of 141.9 to 142.8 °C. Still for that read-out and setting: the value for `COc1ccc(-c2nc3ccccc3c3cc4ccccn4c23)cc1` [Example 7, 6-(4-Methoxyphenyl)indolizino[3,2-c]quinoline] was 164.3 to 164.7 °C.

Turning to `Brc1ccc(-c2nc3ccccc3c3cc4ccccn4c23)cc1` [Example 1, 6-(4-Bromophenyl)indolizino[3,2-c]quinoline], the melting point lay in the range of 205.5 to 205.8 °C. In series [1], the “CFTR activity ratio, result in words” value was “high activity ratio” and the Emax at 30 µM came out at 85%. As for `Cc1ccc(-c2nc3ccccc3c3cc4c(C)cccn4c23)cc1` [Example 20, 11-Methyl-6-(p-tolyl)indolizino[3,2-c]quinoline], the melting point is 162.5 to 163.1 °C. `Clc1ccc(-c2nc3ccccc3c3cc4ccccn4c23)s1` [Example 15, 6-(5-Chlorothiophen-2-yl)indolizino[3,2-c]quinoline]: the melting point lay within 161.4 to 161.7 °C. In series [1], the “CFTR activity ratio, result in words” value is recorded as “high activity ratio” and the maximal response (Emax) at 30 µM was found to be 98%.

With `CCOC(=O)c1c2c3ccccc3nc(-c3cccc(OC)c3)c2n2ccccc12` [Example 37, Ethyl 6-(3-methoxyphenyl)indolizino[3,2-c]quinoline-12-carboxylate], the melting point fell in the range of 173.4 to 173.8 °C.

Regarding `Fc1ccc(-c2nc3ccccc3c3cc4ccccn4c23)cc1` [Example 2, 6-(4-Fluorophenyl)indolizino[3,2-c]quinoline], the melting point is 167 to 167.4 °C. On the same count and under the same terms, the value for `COc1ccc(-c2nc3ccccc3c3cc4c(C)cccn4c23)cc1OC` [Example 22, 6-(3,4-Dimethoxyphenyl)-11-methylindolizino[3,2-c]quinoline] was 162.8 to 163.3 °C. `COc1cc(OC)cc(-c2nc3ccccc3c3cc4ccccn4c23)c1` [Example 10, 6-(3,5-Dimethoxyphenyl)indolizino[3,2-c]quinoline] had a melting point of 139.7 to 140.4 °C. In series [1], the “CFTR activity ratio, result in words” value is reported as “high activity ratio” and the maximal effect (Emax) at 30 µM was 63%. With `COc1ccc(-c2nc3ccccc3c3cc4ccccn4c23)cc1OC` [Example 11, 6-(3,4-Dimethoxyphenyl)indolizino[3,2-c]quinoline], the melting point fell in the range of 91.3 to 92 °C. Same read-out and setting: then `CCOC(=O)c1c2c3ccccc3nc(-c3cccc(Cl)c3)c2n2ccccc12` [Example 35], with 214.3 to 214.5 °C; and `Cc1ccc(-c2nc3ccccc3c3cc4ccccn4c23)cc1` [Example 9, 6-(p-Tolyl)indolizino[3,2-c]quinoline], with 85.3 to 86 °C; and `c1ccc2c(-c3nc4ccccc4c4cc5ccc(-c6ccoc6)cn5c34)cccc2c1` [Example 43, 9-(Furan-3-yl)-6-(naphthalene-1 yl)indolizino[3,2-c]quinoline], with 91.3 to 92 °C. Same read-out and setting: then `Brc1ccc2cc3c4ccccc4nc(-c4ccco4)c3n2c1` [Example 29, 9-Bromo-6-(furna-2-yl)indolizino[3,2-c]quinoline], with 193.3 to 193.6 °C; and `COc1ccc(-c2nc3ccccc3c3cc4ccc(Br)cn4c23)cc1` [Example 24, 9-Bromo-6-(4-methoxyphenyl)indolizino[3,2-c]quinoline], with 229.5 to 230 °C.
